Assay results published in ChEMBL document CHEMBL4765274, “The development of advanced structural framework as multi-target-directed ligands for the treatment of Alzheimer's disease” (Eur J Med Chem, 2020).
The source made the active and inactive calls. The rule behind the calls is not given here.

Tests used:
Acetylcholinesterase [1] = target: Acetylcholinesterase (Electrophorus electricus, UniProt O42275); test: Inhibition of electric eel AChE by Ellman's method
Acetylcholinesterase [2] = target: Acetylcholinesterase (Homo sapiens, UniProt P22303); test: Inhibition of AChE in human erythrocytes by Ellman's method; format: cell-based, Erythrocyte
Sequence of Acetylcholinesterase (Homo sapiens, UniProt P22303) (P22303 whole entry): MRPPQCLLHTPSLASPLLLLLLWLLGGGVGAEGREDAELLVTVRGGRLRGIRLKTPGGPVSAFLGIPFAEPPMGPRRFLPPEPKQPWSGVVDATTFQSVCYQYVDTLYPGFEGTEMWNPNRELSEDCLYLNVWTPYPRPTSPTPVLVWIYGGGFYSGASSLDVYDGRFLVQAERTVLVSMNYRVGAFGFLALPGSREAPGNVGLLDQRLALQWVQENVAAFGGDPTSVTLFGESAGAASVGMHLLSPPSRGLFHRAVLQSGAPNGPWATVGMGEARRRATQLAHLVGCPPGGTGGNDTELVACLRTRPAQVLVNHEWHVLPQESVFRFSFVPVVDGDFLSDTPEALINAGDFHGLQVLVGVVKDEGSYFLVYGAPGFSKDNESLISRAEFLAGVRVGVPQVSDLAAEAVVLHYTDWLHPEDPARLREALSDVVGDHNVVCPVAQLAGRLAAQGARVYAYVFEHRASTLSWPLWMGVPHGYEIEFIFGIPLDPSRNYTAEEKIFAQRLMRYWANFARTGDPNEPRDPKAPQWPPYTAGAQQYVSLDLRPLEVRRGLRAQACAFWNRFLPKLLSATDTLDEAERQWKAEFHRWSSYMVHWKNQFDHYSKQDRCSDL

Cholinesterase [3] = target: T1, Cholinesterase (Homo sapiens, UniProt P06276); test: Inhibition of human serum BChE by Ellman's method; format: cell-free
T1 sequence (P06276 whole entry): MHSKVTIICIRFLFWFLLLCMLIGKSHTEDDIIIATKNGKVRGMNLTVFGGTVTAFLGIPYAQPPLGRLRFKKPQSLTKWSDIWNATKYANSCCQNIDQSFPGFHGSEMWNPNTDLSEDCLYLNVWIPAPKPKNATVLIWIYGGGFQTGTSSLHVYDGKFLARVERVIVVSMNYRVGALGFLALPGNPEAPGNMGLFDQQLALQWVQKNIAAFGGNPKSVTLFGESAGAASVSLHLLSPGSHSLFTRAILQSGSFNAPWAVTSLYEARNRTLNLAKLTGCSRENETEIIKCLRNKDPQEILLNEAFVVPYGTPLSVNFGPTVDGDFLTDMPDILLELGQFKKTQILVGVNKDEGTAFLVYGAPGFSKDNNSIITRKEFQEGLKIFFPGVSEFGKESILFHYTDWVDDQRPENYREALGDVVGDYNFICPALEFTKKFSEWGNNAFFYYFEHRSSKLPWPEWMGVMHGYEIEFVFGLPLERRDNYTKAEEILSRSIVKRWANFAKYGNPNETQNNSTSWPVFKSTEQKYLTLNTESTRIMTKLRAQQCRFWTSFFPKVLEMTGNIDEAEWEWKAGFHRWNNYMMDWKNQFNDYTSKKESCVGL

[4] = Antioxidant activity assessed as trolox equivalent of AAPH radical scavenging activity measured every min for 4 hrs by ORAC-FL assay relative to trolox; format: functional
[5] = Inhibition of Cu2+-induced amyloid beta (1 to 42 residues) (unknown origin) aggregation at 25 uM after 24 hrs by thioflavin-T fluorescence method relative to control
PC-12 = test: Neuroprotective activity against H2O2-induced cytotoxicity in rat PC-12 cells assessed as decrease in LDH activity at 1 to 10 uM preincubated for 2 hrs followed by H2O2 addition and measured after 24 hrs by LDH assay; format: functional, cell-based; details: dose 1-10 µM, time 26.0 hrs
SH-SY5Y = test: Neuroprotective activity against amyloid beta (1 to 42 residues)-induced cytotoxicity in human SH-SY5Y cells assessed as increase in cell viability at 1 to 10 uM incubated for 48 hrs by MTT assay; format: functional, cell-based; details: dose 1-10 µM
[6] = Toxicity in 2 dpf zebra fish assessed as absent blood flow at 25 ug/ml after 3 days relative to control; format: tissue-based, Danio rerio; details: zebrafish, 72 h, at 25 µg/mL, time 3 day
[7] = Toxicity in 2 dpf zebra fish assessed as bradycardia at 25 ug/ml after 3 days relative to control; design: species or system Danio rerio; details: zebrafish, 72 h, at 25 µg/mL, time 3 day
Cholinesterase [8] = target: T1, Cholinesterase; test: Reversible inhibition of human BChE assessed as residual activity at IC50 concentration relative to control
Cholinesterase [9] = target: T1, Cholinesterase; test: Reversible inhibition of human BChE assessed as residual activity at 0.1 times of IC50 concentration after 240 mins relative to control
Homo sapiens = organism: Homo sapiens; test: Binding affinity to amyloid beta (1 to 42 residues) (unknown origin) assessed as dissociation rate constant by biolayer interferometry analysis
[10] = Metal chelating activity assessed as Fe2+-compound complex formation in methanol at 37.5 uM by UV-Visible spectra analysis
[11] = Metal chelating activity assessed as Zn2+-compound complex formation in methanol at 37.5 uM by UV-Visible spectra analysis
[12] = Metal chelating activity assessed as Cu2+-compound complex formation in PBS buffer at pH 7.4 at 37.5 uM by UV-Visible spectra analysis
[13] = Metal chelating activity assessed as Fe2+-compound complex formation in PBS buffer at pH 7.4 at 37.5 uM by UV-Visible spectra analysis
[14] = Metal chelating activity assessed as Zn2+-compound complex formation in PBS buffer at pH 7.4 at 37.5 uM by UV-Visible spectra analysis
[15] = Metal chelating activity assessed as Al3+-compound complex formation in PBS buffer at pH 7.4 at 37.5 uM by UV-Visible spectra analysis
[16] = Metal chelating activity assessed as Al3+-compound complex formation in water buffer at pH 7.4 at 37.5 uM by UV-Visible spectra analysis
[17] = Inhibition of Cu2+-induced amyloid beta (unknown origin) aggregation after 24 hrs by TEM analysis
HT-22 [18] = test: Activation of ubiquitin-proteasome system in mouse HT-22 cells expressing pRK5-GFP-Tau assessed as increase in tau degradation by measuring reduction in GFP level after 24 hrs by flow cytometric analysis; format: cell-based; details: filed as activator, dose 2.5-20 µM
HT-22 [19] = test: Activation of ubiquitin-proteasome system in mouse HT-22 cells expressing YFP-CLI assessed as reduction in GFP level at 10 uM after 24 hrs by fluorescence microscopic method; format: cell-based; details: filed as activator
[20] = Toxicity in 2 dpf zebra fish at 25 ug/ml after 3 days; design: species or system Danio rerio; details: zebrafish, 72 h; dose 25 µg/ml, time 3 day
[21] = Toxicity in 2 dpf zebra fish assessed as dark brown liver at 8.33 ug/ml after 3 days relative to control; design: species or system Danio rerio; details: zebrafish, 72 h, at 8.33 µg/mL, time 3 day
[22] = Toxicity in 2 dpf zebra fish assessed as slow blood flow at 25 ug/ml after 3 days relative to control; format: tissue-based, Danio rerio; details: zebrafish, 72 h, at 25 µg/mL, time 3 day
[23] = Toxicity in 2 dpf zebra fish assessed as misshapen brain at 25 ug/ml after 3 days relative to control; format: tissue-based, Danio rerio; details: zebrafish, 72 h, at 25 µg/mL, time 3 day
[24] = Toxicity in 2 dpf zebra fish assessed as short or misshapen eye at 25 ug/ml after 3 days relative to control; design: species or system Danio rerio; details: zebrafish, 72 h, at 25 µg/mL, time 3 day
[25] = Toxicity in 3 dpf zebra fish assessed as mortality at 0.78 ug/ml (reference value: 0%); design: species or system Danio rerio; details: zebrafish, at 0.78 µg/mL, read-out: Activity
[26] = Toxicity in 3 dpf zebra fish assessed as mortality at 3.125 ug/ml (reference value: 0%); design: species or system Danio rerio; details: zebrafish, at 3.125 µg/mL, read-out: Activity
[27] = Toxicity in 3 dpf zebra fish assessed as mortality at 25 ug/ml (reference value: 0%); design: species or system Danio rerio; details: zebrafish, at 25 µg/mL, read-out: Activity
[28] = Toxicity in 3 dpf zebra fish assessed as mortality at 50 ug/ml (reference value: 0%); design: species or system Danio rerio; details: zebrafish, at 50 µg/mL, read-out: Activity
[29] = Toxicity in 3 dpf zebra fish assessed as mortality at 100 ug/ml (reference value: 0%); design: species or system Danio rerio; details: zebrafish, at 100 µg/mL, read-out: Activity
[30] = Toxicity in 3 dpf zebra fish assessed as mortality at 200 ug/ml (reference value: 0%); design: species or system Danio rerio; details: zebrafish, at 200 µg/mL, read-out: Activity
Danio rerio [31] = organism: Danio rerio; test: Antialzheimer activity in Alcl3-induced zebra fish AD model assessed as increase in motility; format: functional, organism-based
Danio rerio [32] = organism: Danio rerio; test: Antialzheimer activity in Alcl3-induced zebra fish AD model assessed as increase dyskinesia recovery rate at 0.78 ug/ml relative to control; format: functional; details: dose 0.78 µg/ml
Danio rerio [33] = organism: Danio rerio; test: Antialzheimer activity in amyloid beta (1 to 40 residues)-induced zebra fish AD model assessed as reduction in vascular injury at 0.09 ug/ml relative to control; format: functional; design: scale not given: the % may be the effect or the level left; details: dose 0.09 µg/ml
Danio rerio [34] = organism: Danio rerio; test: Antialzheimer activity in amyloid beta (1 to 40 residues)-induced zebra fish AD model assessed as reduction in vascular injury at 0.78 ug/ml relative to control; format: functional; design: scale not given: the % may be the effect or the level left; details: dose 0.78 µg/ml
Mus musculus [35] = test: Antialzheimer activity in scopolamine-induced Kunming mouse model of memory impairment assessed as latency time at 50 mg/kg , po by step-down passive avoidance test (reference value: 125.65 sec); format: functional
Mus musculus [36] = test: Antialzheimer activity in scopolamine-induced Kunming mouse model of memory impairment assessed as total reads in brain hippocampus at 5 mg/kg , po by illumina sequencing method (reference value: 100%); format: functional
Mus musculus [37] = test: Antialzheimer activity in scopolamine-induced Kunming mouse model of memory impairment assessed as uniquely mapped in brain hippocampus at 5 mg/kg , po by illumina sequencing method (reference value: 94.54%); format: functional
[38] = Drug metabolism in mouse blood assessed as metabolite formation by UPLC-TOF analysis; format: ADME, tissue-based

Sequence of Acetylcholinesterase (Electrophorus electricus, UniProt O42275) (O42275 whole entry): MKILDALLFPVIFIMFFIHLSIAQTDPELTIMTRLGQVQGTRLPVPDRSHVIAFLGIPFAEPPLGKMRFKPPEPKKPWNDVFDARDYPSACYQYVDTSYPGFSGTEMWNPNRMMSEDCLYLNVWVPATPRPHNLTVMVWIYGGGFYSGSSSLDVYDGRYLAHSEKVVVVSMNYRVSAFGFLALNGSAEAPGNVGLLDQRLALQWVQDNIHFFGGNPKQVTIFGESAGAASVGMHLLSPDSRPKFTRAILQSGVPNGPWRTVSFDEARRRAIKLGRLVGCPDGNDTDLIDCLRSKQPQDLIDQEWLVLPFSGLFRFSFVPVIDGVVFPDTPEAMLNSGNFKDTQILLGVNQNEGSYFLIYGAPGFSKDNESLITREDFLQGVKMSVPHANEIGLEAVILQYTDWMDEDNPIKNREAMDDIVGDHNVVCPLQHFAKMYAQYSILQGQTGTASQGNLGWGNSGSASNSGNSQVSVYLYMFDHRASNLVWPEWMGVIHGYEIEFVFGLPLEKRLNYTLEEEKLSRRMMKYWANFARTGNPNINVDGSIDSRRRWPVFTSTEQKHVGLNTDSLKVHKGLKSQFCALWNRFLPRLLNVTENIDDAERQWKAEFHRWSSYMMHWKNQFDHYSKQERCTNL

## CCN(CCCCOc1ccc(-c2cc(=O)c3c(O)cc(OCCCCN(CC)Cc4ccccc4)cc3o2)cc1)Cc1ccccc1
Acetylcholinesterase [1]
  IC50: 3.7 µM
Acetylcholinesterase [2]
  IC50: 0.36 µM
Cholinesterase [3]
  IC50: 15.3 µM
[4]
  fold change (FC): 1.2
[5]
  inhibition: 81.3%
PC-12
  Activity: Active
SH-SY5Y
  Activity: Active
[6]
  Activity: 53.3%
[7]
  Activity: 66.7%
Cholinesterase [8]
  Activity: 42.3%
Cholinesterase [9]
  Activity: 97.6%
Homo sapiens
  Kdiss: 2.56 10^-2/s
[10]
  Activity: Active
[11]
  Activity: inactive
[12]
  Activity: Active
[13]
  Activity: Active
[14]
  Activity: inactive
[15]
  Activity: inactive
[16]
  Activity: inactive
[17]
  inhibition: Active
HT-22 [18]
  Activity: Dose-dependent effect
HT-22 [19]
  Activity: Active
[20]
  Activity: Non-Toxic
[21]
  Activity: 70%
[22]
  Activity: 46.7%
[23]
  Activity: 76.7%
[24]
  Activity: 433%
[25]
  mortality at 0.78 ug/ml: 0%
[26]
  mortality at 3.125 ug/ml: 100%
[27]
  mortality at 25 ug/ml: 100%
[28]
  mortality at 50 ug/ml: 100%
[29]
  mortality at 100 ug/ml: 100%
[30]
  mortality at 200 ug/ml: 100%
Danio rerio [31]
  Activity: Dose-dependent effect
Danio rerio [32]
  Activity: 87%
Danio rerio [33]
  Activity: 9%
Danio rerio [34]
  Activity: 0%
Mus musculus [35]
  Time: 227.34 s
Mus musculus [36]
  Activity: 100%
Mus musculus [37]
  Activity: 94.34%
[38]
  Drug metabolism: Metabolite_Detected
